Measurements as given in patent US20220370463A1, “STABILIZED C-FMS INTRACELLULAR FRAGMENTS (FICD) PROMOTE OSTEOCLAST DIFFERENTIATION AND ARTHRITIC BONE EROSION” (New York Society for the Relief of the Ruptured and …, priority 2019, published 2022).

Legend:
NFATc1 [1] = assay: RANKL-induced NFATc1 expression in human OCPs (immunoblot, qPCR); format: cell-based
Experimental: (a and b) BMDMs from WT and FICDtg^M mice was stimulated with RANKL (50 ng/ml) at the indicated time. (a) RT-qPCR of Nfatc1 mRNA normalized relative to Hprt mRNA. (b) Immunoblot with anti NFATc1, HA, or α-tubulin antibodies. (c and d) BMDMs from Csf1r^f/+ Mx1-Cre mice were transduced by lentiviruses encoding FMS^wt, or FMS^mut and then cultured with M-CSF and RANKL. (c) Immunoblot of whole lysate with anti-NFATc1 antibody. α-tubulin was used as a control. […] The intensity of NFATc1 in FMS^mut was set as 100%. (d) Expression mRNA level of NFATc1. (e) Immunoblot of whole cell lysates with phospho-eIF4E antibodies. HA-tagged FICD was detected by HA-antibody. α-tubulin was used as a control. […] (f and g) Human CD14+ cells were treated with CGP57380 at the indicated doses for one hour and cultured with RANKL for one day. […] (g) Nfatc1 mRNA expression was measured by qPCR relative to HPRT. A DMSO-treated RANKL condition was set as 100%. […]
(§1) Whole cell extracts were prepared by lysis in buffer containing 1× Lamin sample buffer (Bio-rad) and 2-Mercaptoethanol (Sigma) or RIPA buffer (Sigma). […] The protein concentration of nuclear extracts was quantitated using the Bradford assay (Bio-Rad; 5000001). For immunoblot, proteins were separated on 7.5 or 10% SDS-PAGE gels, transferred to polyvinylidene difluoride membranes (PVDF, Millipore; ISEQ00010), and detected by antibodies as listed in the figure legends.

NFATc1 [2] = assay: RANKL-induced NFATc1 expression in mouse OCPs (immunoblot, qPCR); format: cell-based
Experimental: (A and B) BMDMs from WT and FICDtg^M mice were cultured with RANKL for 24 hours. Immunoblot of whole cell lysates with phopho-p70S6K and phopho-4E-BP1 antibodies. HA-tagged FICDs were detected by HA-antibody. α-tubulin or P38 was used as a control. (C) BMDMs from female wild type LysM cre mice (WT) or RAPTORf/f-LysM cre mice (Raptor cKO) were cultured with M-CSF for 4 days and were stimulated with RANKL for the indicated days. Immunoblot of whole cell lysates with anti-Raptor, NFATc1, or α-tubulin antibodies. (D-F) BMDMs from WT mice were treated with CPG57380 at the indicated doses and then cultured with RANKL for one day. (D) Immunoblot of whole lysate with anti-NFATc1 antibody. α-tubulin was used as a control. […] The intensity of NFATc1 bands in RANKL treatment conditions (control) was set as 100%. (n=4) (E) Expression mRNA level of NFATc1. […]
as §1

BMDM cells = assay: Mouse osteoclastogenesis assay in BMDMs (TRAP-positive multinuclear cells); format: cell-based
Experimental: (a and b) BMDMs from WT and FICDtg^M mice was stimulated with RANKL (50 ng/ml) at the indicated time. (a) RT-qPCR of Nfatc1 mRNA normalized relative to Hprt mRNA. (b) Immunoblot with anti NFATc1, HA, or α-tubulin antibodies. (c and d) BMDMs from Csf1r^f/+ Mx1-Cre mice were transduced by lentiviruses encoding FMS^wt, or FMS^mut and then cultured with M-CSF and RANKL. (c) Immunoblot of whole lysate with anti-NFATc1 antibody. α-tubulin was used as a control. […] The intensity of NFATc1 in FMS^mut was set as 100%. (d) Expression mRNA level of NFATc1. (e) Immunoblot of whole cell lysates with phospho-eIF4E antibodies. HA-tagged FICD was detected by HA-antibody. α-tubulin was used as a control. […] (f and g) Human CD14+ cells were treated with CGP57380 at the indicated doses for one hour and cultured with RANKL for one day. […] (g) Nfatc1 mRNA expression was measured by qPCR relative to HPRT. A DMSO-treated RANKL condition was set as 100%. (h) Osteoclastogenesis assay. […]
(A and B) BMDMs from WT and FICDtg^M mice were cultured with RANKL for 24 hours. […] HA-tagged FICDs were detected by HA-antibody. α-tubulin or P38 was used as a control. […]
For human osteoclastogenesis assays, cells were added to 96 well plates in triplicate at a seeding density of 5×10^4 cells per well. […] Multinucleated (greater than 3 nuclei), TRAP-positive osteoclasts were counted in triplicate wells. […]

[3] = tested on: BMDMs from WT and FICDtg^M mice; assay: Cell viability assay in BMDMs; format: cell-based, mouse; details: CGP57380 at the indicated doses for one day
Experimental: (a and b) BMDMs from WT and FICDtg^M mice was stimulated with RANKL (50 ng/ml) at the indicated time. (a) RT-qPCR of Nfatc1 mRNA normalized relative to Hprt mRNA. (b) Immunoblot with anti NFATc1, HA, or α-tubulin antibodies. (c and d) BMDMs from Csf1r^f/+ Mx1-Cre mice were transduced by lentiviruses encoding FMS^wt, or FMS^mut and then cultured with M-CSF and RANKL. (c) Immunoblot of whole lysate with anti-NFATc1 antibody. α-tubulin was used as a control. […] The intensity of NFATc1 in FMS^mut was set as 100%. (d) Expression mRNA level of NFATc1. (e) Immunoblot of whole cell lysates with phospho-eIF4E antibodies. HA-tagged FICD was detected by HA-antibody. α-tubulin was used as a control. […] (f and g) Human CD14+ cells were treated with CGP57380 at the indicated doses for one hour and cultured with RANKL for one day. […] (g) Nfatc1 mRNA expression was measured by qPCR relative to HPRT. A DMSO-treated RANKL condition was set as 100%. (h) Osteoclastogenesis assay. BMDMs from WT and FICDtg^M mice were treated with CPG57380 at the indicated doses and then cultured with RANKL for three days. […] Scale bar: 100 μm. (i) Cell viability assay. BMDMs WT and FICDtg^M mice was stimulated with CPG57380 at the indicated doses for one day. (j-n) K/BxN serum transfer induced arthritis model. 9-week old male C57BL/6J mice were received K/BxN serum on day 0 and day 2. […]

osteoclastogenesis = details: inhibiting proteosomal degradation; cited from earlier work
[4] = CGP57380, RANKL for one day, qPCR

Nc1ncnc2n[nH]c(Nc3ccc(F)cc3)c12 [CGP57380]
Nfatc1 mRNA expression (NFATc1 [1]; [4]): marginally changed
RANKL-induced NFATc1 protein expression (NFATc1 [1]; CGP57380 one hour, then RANKL for one day): suppressed RANKL-induced NFATc1 protein expression in a dose-dependent manner
Nfatc1 mRNA expression (NFATc1 [2]; [4]): marginally changed
RANKL-induced NFATc1 protein expression (NFATc1 [2]; CGP57380, then RANKL for one day): suppressed RANKL-induced NFATc1 protein expression in a dose-dependent manner
enhanced osteoclastogenesis in FICDtg^M cells (BMDM cells; BMDMs from FICDtg^M mice, RANKL for three days): inhibited the enhanced osteoclastogenesis in FICDtg^M cells to become comparable to osteoclasts in WT cells
osteoclast differentiation (BMDM cells; BMDMs from WT mice, RANKL for 3 days): suppressed osteoclast differentiation in a dose-dependent manner
cell viability [3]: minimal effect

CC(C)C[C@H](NC(=O)[C@H](Cc1ccccc1)NC(=O)c1cnccn1)B(O)O [bortezomib]
osteoclastogenesis (osteoclastogenesis): suppresses osteoclastogenesis
